From patent US11524940B1, “Inhibitors of cysteine proteases and methods of use thereof” (priority 2020, dated 2022)
Read-outs that look alike come from different tables or passages of the source.

What was measured:
[1] = target: SARS-CoV2 Mpro (Severe acute respiratory syndrome coronavirus 2 (2019-nCoV) (SARS-CoV-2), UniProt P0DTD1); assay: COVID-19 (SARS-CoV2) Mpro enzymatic assay; assay type: biochemical; conditions: 25 nM Mpro, 25 μM substrate
[2] = target: 229E Mpro (Human coronavirus 229E (HCoV-229E), UniProt P0C6X1); assay: 229E Mpro activity; assay type: biochemical
229E Mpro, sequence (P0C6X1 2966-3267 limits assumed): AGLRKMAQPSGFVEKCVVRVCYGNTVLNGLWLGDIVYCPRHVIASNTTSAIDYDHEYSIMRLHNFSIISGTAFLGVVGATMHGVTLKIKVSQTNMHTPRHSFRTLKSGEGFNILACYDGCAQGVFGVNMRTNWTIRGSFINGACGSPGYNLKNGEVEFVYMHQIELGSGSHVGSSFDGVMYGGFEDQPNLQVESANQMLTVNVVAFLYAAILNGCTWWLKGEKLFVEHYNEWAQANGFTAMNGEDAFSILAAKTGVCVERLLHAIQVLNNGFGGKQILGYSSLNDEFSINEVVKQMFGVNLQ
Protocol: Compounds are assayed using standard methods to assess compound activity and IC50. […] The assay buffer contains 20 mM of Tris-HCl (pH 7.3), 100 mM of NaCl, 1 mM of EDTA, 5mM of TCEP and 0.1% BSA.

SMILES | IC50 [1] [µM] | EC50 ([2]; read-out: 229E Mpro EC50) [µM] | EC50 ([2]; 229E Mpro EC50) [µM]
N#C[C@@]1(NC(=O)[C@H](CC2CC2)NC(=O)OCc2ccccc2)C[C@@H]2CC[C@H]1[C@@H]1C(=O)NC(=O)[C@H]21 (single isomer, unassigned) [495 (Isomer 2)] | > 30 | > 30 | 
COc1cccc2[nH]c(C(=O)N3CC4(CCC4)CC3C(=O)N[C@H](C#N)C[C@@H]3CCCNC3=O)cc12 (single isomer, unassigned) [719A (Isomer 1)] | 10 to 30 | 10 to 30 | 
N#C[C@H](C[C@@H]1CCCNC1=O)NC(=O)C1CC2(CCCCC2)CN1C(=O)c1cc2cccc(Cl)c2[nH]1 (single isomer, unassigned) [731 (Isomer 2)] | 2 to 10 | 10 to 30 | 
N#C[C@H](C[C@@H]1CCCNC1=O)NC(=O)C1CC2(CCCCC2)CN1C(=O)c1cc2ccc(Cl)cc2[nH]1 (single isomer, unassigned) [733 (Isomer 2)] | 2 to 10 | 2 to 10 | 
N#C[C@H](C[C@@H]1CCCNC1=O)NC(=O)C1CC2(CN1C(=O)c1cc3cccc(Cl)c3[nH]1)CC(F)(F)C2 (single isomer, unassigned) [743 (Isomer 1)] | > 30 |  | > 30
N#C[C@H](C[C@@H]1CCCNC1=O)NC(=O)C1CC2(CN1C(=O)c1cc3cccc(Cl)c3[nH]1)CC(F)(F)C2 (single isomer, unassigned) [743 (Isomer 2)] | < 2 | < 2 | 
N#C[C@H](C[C@@H]1CCCNC1=O)NC(=O)C1CC2(CCC2)CN1C(=O)c1cc2ccc(Cl)cc2[nH]1 (single isomer, unassigned) [791 (Isomer 1)] | > 30 | > 30 | 
N#C[C@H](C[C@@H]1CCCNC1=O)NC(=O)C1CC2(CCC2)CN1C(=O)c1cc2ccc(Cl)cc2[nH]1 (single isomer, unassigned) [791 (Isomer 2)] | < 2 | < 2 | 
N#C[C@H](C[C@@H]1CCCNC1=O)NC(=O)C1CC2(CCCCC2)CN1C(=O)c1cc2c(Cl)cccc2[nH]1 (single isomer, unassigned) [801 (Isomer 1)] | < 2 | < 2 | 
N#C[C@H](C[C@@H]1CCCNC1=O)NC(=O)C1CC2(CCCCC2)CN1C(=O)c1cc2c(Cl)cccc2[nH]1 (single isomer, unassigned) [801 (Isomer 2)] | 10 to 30 | 10 to 30 | 
N#C[C@H](C[C@@H]1CCCNC1=O)NC(=O)C1CC2(CCC2)CN1C(=O)c1cc2c(Cl)cccc2[nH]1 (single isomer, unassigned) [803 (Isomer 1)] | > 30 | > 30 | 
N#C[C@H](C[C@@H]1CCCNC1=O)NC(=O)C1CC2(CCC2)CN1C(=O)c1cc2c(Cl)cccc2[nH]1 (single isomer, unassigned) [803 (Isomer 2)] | > 30 | > 30 | 
N#C[C@H](C[C@@H]1CCCNC1=O)NC(=O)C1CC2(CCC2)CN1C(=O)c1cc2c(Cl)cccc2[nH]1 (single isomer, unassigned) [803 (Isomer 3)] | < 2 | < 2 | 
N#C[C@H](C[C@@H]1CCCNC1=O)NC(=O)C1CC2(CCC2)CN1C(=O)c1cc2c(Cl)cccc2[nH]1 (single isomer, unassigned) [803 (Isomer 4)] | 2 to 10 | < 2 | 
N#C[C@H](C[C@@H]1CCCNC1=O)NC(=O)C1CC2(CCC(F)(F)CC2)CN1C(=O)c1cc2cccc(Cl)c2[nH]1 (single isomer, unassigned) [805 (Isomer 1)] | 10 to 30 | > 30 | 
N#C[C@H](C[C@@H]1CCCNC1=O)NC(=O)C1CC2(CCC(F)(F)CC2)CN1C(=O)c1cc2cccc(Cl)c2[nH]1 (single isomer, unassigned) [805 (Isomer 2)] | < 2 | < 2 | 
N#C[C@H](C[C@@H]1CCNC1=O)NC(=O)C1CC2(CCC2)CN1C(=O)c1cc2ccc(Cl)c(Cl)c2[nH]1 (single isomer, unassigned) [814 (Isomer 1)] | > 30 | > 30 | 
N#C[C@H](C[C@@H]1CCNC1=O)NC(=O)C1CC2(CCC2)CN1C(=O)c1cc2ccc(Cl)c(Cl)c2[nH]1 (single isomer, unassigned) [814 (Isomer 2)] | < 2 | < 2 | 
COc1ccc(Cl)c2[nH]c(C(=O)N3CC4(CCCCC4)CC3C(=O)N[C@H](C#N)C[C@@H]3CCNC3=O)cc12 (single isomer, unassigned) [882 (Isomer 1)] | < 2 | < 2 | 
COc1ccc(Cl)c2[nH]c(C(=O)N3CC4(CCCCC4)CC3C(=O)N[C@H](C#N)C[C@@H]3CCNC3=O)cc12 (single isomer, unassigned) [882 (Isomer 2)] | 10 to 30 | 10 to 30 | 
COc1ccc2[nH]c(C(=O)N3CC4(CCC4)CC3C(=O)N[C@H](C#N)C[C@@H]3CCNC3=O)cc2c1Cl (single isomer, unassigned) [886 (Isomer 1)] | > 30 | > 30 | 
COc1ccc2[nH]c(C(=O)N3CC4(CCC4)CC3C(=O)N[C@H](C#N)C[C@@H]3CCNC3=O)cc2c1Cl (single isomer, unassigned) [886 (Isomer 2)] | < 2 | < 2 | 

SMILES | IC50 [1] [µM] | EC50 ([2]; read-out: 229E Mpro EC50) [µM] | EC50 ([2]; 229E Mpro EC50) [µM]
COc1ccc(Cl)c2[nH]c(C(=O)N3CC4(CCCCC4)CC3C(=O)NC(C#N)C[C@@H]3CCCNC3=O)cc12 (single isomer, unassigned) [902 (Isomer 1)] | < 2 | < 2 | 
COc1ccc(Cl)c2[nH]c(C(=O)N3CC4(CCCCC4)CC3C(=O)NC(C#N)C[C@@H]3CCCNC3=O)cc12 (single isomer, unassigned) [902 (Isomer 2)] | 2 to 10 | 10 to 30 | 
COc1ccc(Cl)c2[nH]c(C(=O)N3CC4(CCCCC4)CC3C(=O)NC(C#N)C[C@@H]3CCCNC3=O)cc12 (single isomer, unassigned) [902 (Isomer 3)] | < 2 | < 2 | 
COc1ccc(Cl)c2[nH]c(C(=O)N3CC4(CCCCC4)CC3C(=O)NC(C#N)C[C@@H]3CCCNC3=O)cc12 (single isomer, unassigned) [902 (Isomer 4)] | > 30 | > 30 | 
COc1cc(Cl)cc2[nH]c(C(=O)N3CC4(CCCCC4)CC3C(=O)N[C@H](C#N)C[C@@H]3CCCNC3=O)cc12 (single isomer, unassigned) [908 (Isomer 1)] | < 2 | < 2 | 
COc1cc(Cl)cc2[nH]c(C(=O)N3CC4(CCCCC4)CC3C(=O)N[C@H](C#N)C[C@@H]3CCCNC3=O)cc12 (single isomer, unassigned) [908 (Isomer 2)] | 2 to 10 | 2 to 10 | 
CC1(C)CCC(C[C@@H](C#N)NC(=O)C2CC3(CCCCC3)CN2C(=O)c2cc3cccc(Cl)c3[nH]2)C(=O)N1 (single isomer, unassigned) [928 (Isomer 3)] | < 2 | 2 to 10 | 
CC1(C)CCC(C[C@@H](C#N)NC(=O)C2CC3(CCCCC3)CN2C(=O)c2cc3cccc(Cl)c3[nH]2)C(=O)N1 (single isomer, unassigned) [928 (Isomer 4)] | 2 to 10 | > 30 | 
CC1(C)CC(C[C@@H](C#N)NC(=O)C2CC3(CCCCC3)CN2C(=O)c2cc3cccc(Cl)c3[nH]2)C(=O)N1 (single isomer, unassigned) [930 (Isomer 1)] | 10 to 30 | > 30 | 
CC1(C)CC(C[C@@H](C#N)NC(=O)C2CC3(CCCCC3)CN2C(=O)c2cc3cccc(Cl)c3[nH]2)C(=O)N1 (single isomer, unassigned) [930 (Isomer 2)] | 10 to 30 | > 30 | 
CC1(C)CC(C[C@@H](C#N)NC(=O)C2CC3(CCCCC3)CN2C(=O)c2cc3cccc(Cl)c3[nH]2)C(=O)N1 (single isomer, unassigned) [930 (Isomer 3)] | < 2 | < 2 | 
CC1(C)CC(C[C@@H](C#N)NC(=O)C2CC3(CCCCC3)CN2C(=O)c2cc3cccc(Cl)c3[nH]2)C(=O)N1 (single isomer, unassigned) [930 (Isomer 3.1)] | < 2 | < 2 | 
CC1(C)CC(C[C@@H](C#N)NC(=O)C2CC3(CCCCC3)CN2C(=O)c2cc3cccc(Cl)c3[nH]2)C(=O)N1 (single isomer, unassigned) [930 (Isomer 3.2)] | 2 to 10 | 10 to 30 | 
CC1(C)CC(C[C@@H](C#N)NC(=O)C2CC3(CCCCC3)CN2C(=O)c2cc3cccc(Cl)c3[nH]2)C(=O)N1 (single isomer, unassigned) [930 (Isomer 4)] | 2 to 10 | 10 to 30 | 
CC1(C)CC(C[C@@H](C#N)NC(=O)C2CC3(CCCCC3)CN2C(=O)c2cc3cccc(Cl)c3[nH]2)C(=O)N1 (single isomer, unassigned) [930 (Isomer 5)] | 10 to 30 | > 30 | 
CC1(C)CC(C[C@@H](C#N)NC(=O)C2CC3(CCCCC3)CN2C(=O)c2cc3cccc(Cl)c3[nH]2)C(=O)N1 (single isomer, unassigned) [930 (Isomer 6)] | < 2 | < 2 | 
COc1cccc2[nH]c(C(=O)N3CC4(CCC(F)(F)CC4)CC3C(=O)N[C@H](C#N)C[C@@H]3CCCNC3=O)cc12 (single isomer, unassigned) [982 (Isomer 1)] | < 2 | < 2 | 
COc1cccc2[nH]c(C(=O)N3CC4(CCC(F)(F)CC4)CC3C(=O)N[C@H](C#N)C[C@@H]3CCCNC3=O)cc12 (single isomer, unassigned) [982 (Isomer 2)] | > 30 | > 30 | 
N#C[C@H](C[C@@H]1CCNC1=O)NC(=O)C1CC2(CCC2)CN1C(=O)c1cc2cccc(Cl)c2[nH]1 (single isomer, unassigned) [988 (Isomer 1)] | > 30 | > 30 | 
N#C[C@H](C[C@@H]1CCNC1=O)NC(=O)C1CC2(CCC2)CN1C(=O)c1cc2cccc(Cl)c2[nH]1 (single isomer, unassigned) [988 (Isomer 2)] | < 2 | < 2 | 
N#C[C@H](C[C@@H]1CCNC1=O)NC(=O)C1CC2(CCC2)CN1C(=O)c1cc2ccc(Cl)cc2[nH]1 (single isomer, unassigned) [990 (Isomer 1)] | > 30 | > 30 | 
